From PubChem BioAssay (NCI)
Values joined by “and” are separate entries in the source; they are usually repeats but may differ in a detail not shown here. Equal entries are not always repeated.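 Growth conditions: 96-well plates. Treatment: test compound, 48 hours, 5 concentrations. Analysis: linear interpolation between bracketing concentrations; unreached endpoints set to highest concentration. Here, GI50 denotes the concentration required for 50% inhibition of growth. TGI marks complete inhibition of growth.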

Assays:
Assay in all cases: NCI anticancer screen, dose series, 48 h
[1] = system: OVCAR-8 ovarian
[2] = system: UACC-257 melanoma
[3] = system: NCI-H226 lung
[4] = system: EKVX NSCLC
[5] = system: MALME-3M melanoma
[6] = system: UO-31 renal
[7] = system: MDA-N
[8] = system: DU-145 prostate
[9] = system: IGROV1 ovarian
[10] = system: MDA-MB-435
[11] = system: K-562 leukemia

Row | Compound | TGI [1] | TGI [2] [µM] | TGI [3] | TGI [4] | TGI [5] [µM] | TGI [6] | TGI [7] | TGI [8] | TGI [9] | TGI [10] | TGI [11] | GI50 [1] [µM] | GI50 [10] [µM] | GI50 [3] [µM] | GI50 [6] [µM] | GI50 [11] [µM] | GI50 [7] [µM] | GI50 [8] [µM] | GI50 [9] [µM]
1 | Cc1cc(C)nc(NC(P(=O)(O)O)P(=O)(O)O)n1 | > 100 µM | > 100 | > 100 µM | > 100 µM | > 100 | > 100 µM | > 100 µM | > 100 µM | > 100 µM |  |  |  |  |  |  |  |  |  | 
2 | O=C(CBr)c1ccc2cc(Br)c3ccccc3c2c1 | 55.8 µM | 49.9 | 33.6 µM | 54.5 µM | 34.4 | 62.7 µM |  | 46.4 µM | 62.4 µM | 42.6 µM | 77.6 µM |  |  |  |  |  |  |  | 
3 | CCOC(=O)c1c(OCC)[nH]c(=O)c(C(c2cccs2)c2c(O)c(C(=O)OCC)c(OCC)[nH]c2=O)c1O | 41.6 µM | 36.9 | 27.4 µM | 32.7 µM | 25.6 | 26.7 µM |  | 26.9 µM | 28.6 µM | 32.4 µM |  |  |  |  |  |  |  |  | 
4 | CC(=O)NC1C(Sc2ncn(C3OC(CO)C(O)C(O)C3NC(C)=O)n2)OC(CO)C(O)C1O (stereo not drawn) | > 100 µM | > 100 |  | > 100 µM | > 100 |  | > 100 µM | > 100 µM | > 100 µM | > 100 µM |  |  |  |  |  |  |  |  | 
5 | CC(=O)c1ccc2c(c1)C(=O)c1sc(C(C)=O)cc1C2=O | 1.69 µM and 2.67 µM |  | 2.2 µM and 4.03 µM | 3.43 µM and 2.58 µM | 1.2 | 2.15 µM and 2.69 µM | 2.02 µM and 3.38 µM | 2.12 µM and 3 µM | 2.55 µM and 1.59 µM | 2.63 µM and 0.33 µM | 50 µM and > 100 µM | 0.587 | 0.176 | 1.43 | 1.4 | 0.264 | 0.316 | 1.54 | 0.43
6 | COc1ccc(C2(CC(C)C)CCN(S(=O)(=O)c3ccc(C)cc3)C2)cc1OC (stereo not drawn) |  | > 100 | > 100 µM | > 100 µM |  | > 100 µM | > 100 µM | > 100 µM | > 100 µM | > 100 µM | 76.5 µM |  |  |  |  |  |  |  | 
7 | Oc1c(Br)ccc2cccnc12 | > 100 µM |  | 38.5 µM | > 66.3 µM | > 64.4 | 22.8 µM | > 100 µM | > 68.8 µM | 15.6 µM | > 100 µM | > 31.4 µM |  |  |  |  |  |  |  | 
8 | C/C=C\C(CC(=O)NCC(=O)c1c[nH]c2ccccc12)CC(=O)OC (stereo not drawn) | > 100 µM | > 100 |  | > 100 µM | > 100 | > 100 µM | > 100 µM | > 100 µM | > 100 µM | > 100 µM | > 100 µM |  |  |  |  |  |  |  | 
9 | O=C1CC(=O)NC(=NN2C(=O)/C(=C/c3ccc(Cl)c(Cl)c3)N=C2c2ccccc2)N1 | 94.9 µM | > 100 | > 100 µM |  | > 100 | > 100 µM | 90.7 µM | > 100 µM | > 100 µM | > 100 µM | 32.5 µM |  |  |  |  |  |  |  | 
10 | O=C1OCC2OC(=O)c3cc(O)c(O)c(O)c3-c3c(O)c(O)c(O)c4c3C(=O)OC(C2OC(=O)c2cc(O)c(O)c(O)c2-c2c1cc(O)c(O)c2O)C1OC(=O)C2C4=C(O)C(=O)C23Oc2cc(O)c4c(c2[C@H]13)O[C@H](c1ccc(O)c(O)c1)[C@@H](O)C4 (stereo partly drawn) | 58.5 µM | > 100 | 35.6 µM | 42.7 µM | 72.2 | > 100 µM |  | > 100 µM | > 100 µM | 45 µM | 72.3 µM |  |  |  |  |  |  |  | 
